Measured values: patent US4868182A, “Enhancement of prazosin” (Merrell Dow Pharmaceuticals Inc., priority 1988, dated 1989)

Legend:
[1] = molecular target: cyclic AMP-phosphodiesterase; test: in vitro inhibition of cyclic AMP-phosphodiesterase; assay type: biochemical; conditions: 50% inhibition of cyclic AMP-phosphodiesterase activity on 1 micromolar substrate
Method: In general, the specific cyclic AMP-phosphodiesterase inhibitors of this invention, (i.e., the above-described cardiotonic agents) when conjunctively administered with prazosin to effect their synergistic activity, are administered at about the threshold dose to exert a blood pressure lowering effect, i.e., the minimum dose it takes to exert a statistically significant lowering of blood pressure. This threshold dose is readily determined by standard laboratory methodology. For example, assays such as the Spontaneously Hypertensive Rat and the Anesthesized Dog for testing blood pressure effects may readily be employed to determine the threshold dose of lowering blood pressure. The threshold dose may also be approximately calculated from an in vitro IC50 value. For this purpose the in vitro IC50 value is the micromolar quantity of compound needed to effect a 50% inhibition of the activity of cyclic AMP-phosphodiesterase on one (1) micromolar quantity of substrate. This IC50 value, when multiplied by the appropriate fraction for intravenous and oral administrations will yield the dosage range, in mg per kg of body weight, necessary to effect its synergism with prazosin.
On the basis of spontaneously hypertensive rat data the multiplying factor is 1/10 to 1 for the intravenous dose and 1 to 10 for the oral dose. […]

[2] = tested on: spontaneously hypertensive rats; test: lowering of systolic blood pressure in spontaneously hypertensive rats; assay type: in vivo, rat; conditions: SHR, oral, prazosin 0.1 mg/kg, alone or combined, mean ± SE

Structure (SMILES) | IC50 [1] [µM] | systolic blood pressure change from control at 1 hour ([2]; Table 1, piroximone 25 mg/kg) [mmHg] | systolic blood pressure change from control at 2 hours ([2]; Table 1, piroximone 25 mg/kg) [mmHg] | systolic blood pressure change from control at 3 hours ([2]; Table 1, piroximone 25 mg/kg) [mmHg] | systolic blood pressure change from control at 4 hours ([2]; Table 1, piroximone 25 mg/kg) [mmHg] | systolic blood pressure change from control at 1 hour ([2]; Table 2, amrinone 55 mg/kg) [mmHg] | systolic blood pressure change from control at 2 hours ([2]; Table 2, amrinone 55 mg/kg) [mmHg] | systolic blood pressure change from control at 3 hours ([2]; Table 2, amrinone 55 mg/kg) [mmHg] | systolic blood pressure change from control at 4 hours ([2]; Table 2, amrinone 55 mg/kg) [mmHg]
CCc1[nH]c(=O)[nH]c1C(=O)c1ccncc1 [piroximone] | 26 | -23 ± 5 | -17 ± 6 | -18 ± 7 | -20 ± 5 | – | – | – | –
Nc1cc(-c2ccncc2)c[nH]c1=O [amrinone] | – | – | – | – | – | -26 ± 6 | -23 ± 5 | -21 ± 8 | -23 ± 7
COc1cc2nc(N3CCN(C(=O)c4ccco4)CC3)nc(N)c2cc1OC [prazosin] | – | -40 ± 4 | -40 ± 4 | -42 ± 4 | -35 ± 5 | -32 ± 3 | -31 ± 4 | -32 ± 4 | -31 ± 4
